From ChEMBL document CHEMBL1201862, “PubChem BioAssay data set” (2004)
Active and inactive are the calls of the source.

How the values were obtained:
A-375 [1] = experiment: MITF: Counter assay: A375 proliferation Measured in Cell-Based System Using Plate Reader - 2084-03_Inhibitor_Dose_DryPowder_Activity. [Related pubchem assays (depositor defined):AID488944]; format: functional; conditions: Homo sapiens
A-375 [2] = experiment: A375 melanoma cell viability reduction, dose response, counter-screen for MITF modulator project, cherry-pick samples, set 2 (AID 540335); format: functional, cell-based; conditions: Homo sapiens
Cytochrome P450 2C9 [3] = biological target: T1, Cytochrome P450 2C9 (Homo sapiens, UniProt P11712)
T1 sequence (P11712 whole entry): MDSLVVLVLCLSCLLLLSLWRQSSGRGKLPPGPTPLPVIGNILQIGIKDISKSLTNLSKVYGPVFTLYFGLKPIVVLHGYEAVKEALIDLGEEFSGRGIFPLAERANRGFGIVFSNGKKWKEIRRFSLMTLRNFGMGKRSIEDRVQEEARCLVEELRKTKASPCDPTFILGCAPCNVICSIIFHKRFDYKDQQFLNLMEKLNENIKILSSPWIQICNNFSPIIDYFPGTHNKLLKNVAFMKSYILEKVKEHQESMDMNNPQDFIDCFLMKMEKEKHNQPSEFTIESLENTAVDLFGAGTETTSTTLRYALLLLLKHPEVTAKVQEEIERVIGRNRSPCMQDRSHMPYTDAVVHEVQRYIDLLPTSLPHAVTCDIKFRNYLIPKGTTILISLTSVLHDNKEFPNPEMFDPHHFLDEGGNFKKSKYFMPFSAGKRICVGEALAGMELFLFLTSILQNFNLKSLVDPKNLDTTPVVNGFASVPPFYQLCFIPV

HeLa = experiment: HeLa cell cytotoxicity, dose response, cytotoxicity control for MITF activator project, CellTiter-Glo luminescence, cherry-pick samples (AID 540259); format: functional, cell-based; conditions: Homo sapiens
[4] = biological target: T2, Rac GTPase-activating protein 1 (Homo sapiens, UniProt Q9H0H5); experiment: MgcRacGAP GTPase-activating activity inhibitors, confirmation, biochemical, ADP Hunter fluorescence, primary and confirmatory (AID 624330); format: functional
T2 sequence (Q9H0H5 whole entry): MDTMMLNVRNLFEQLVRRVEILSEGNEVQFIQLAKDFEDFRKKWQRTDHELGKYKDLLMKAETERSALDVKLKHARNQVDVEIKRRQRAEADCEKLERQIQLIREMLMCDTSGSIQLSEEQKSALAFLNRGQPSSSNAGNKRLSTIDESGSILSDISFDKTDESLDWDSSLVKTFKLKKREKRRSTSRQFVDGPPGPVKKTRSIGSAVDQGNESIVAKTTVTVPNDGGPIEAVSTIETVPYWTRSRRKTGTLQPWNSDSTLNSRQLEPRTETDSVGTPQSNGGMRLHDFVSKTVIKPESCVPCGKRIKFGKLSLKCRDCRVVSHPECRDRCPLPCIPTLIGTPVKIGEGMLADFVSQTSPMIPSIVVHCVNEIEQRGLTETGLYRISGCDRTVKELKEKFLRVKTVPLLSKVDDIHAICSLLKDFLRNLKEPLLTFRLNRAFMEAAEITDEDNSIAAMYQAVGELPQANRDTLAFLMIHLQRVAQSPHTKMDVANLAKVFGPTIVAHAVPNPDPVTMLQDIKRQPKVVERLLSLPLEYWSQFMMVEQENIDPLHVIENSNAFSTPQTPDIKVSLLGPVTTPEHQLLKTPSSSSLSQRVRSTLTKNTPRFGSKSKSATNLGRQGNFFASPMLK

Escherichia coli = experiment: microbe, parasite or virus in culture
[5] = inhibitors of intracellular T. cruzi replication, confirmation, NIH3T3 host cells, beta-gal luminescence (AID 2044); format: functional, cell-based;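 note: intracellular parasites grown in NIH/3T3 mouse fibroblasts as host cells; luminescent beta-galactosidase reporter signal from transgenic T. cruzi replicating inside host cells; inhibitors lower the luminescence signal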
[6] = cytotoxicity toward NIH3T3 fibroblasts, dose response, counter-screen, cell-based, ATP luminescence, mouse fibroblasts (AID 2010); format: functional;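 note: cells exposed to compound for about 90 hours before reading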
[7] = biological target: T3, Mannose-6-phosphate isomerase (Homo sapiens, UniProt P34949); experiment: human PMI inhibitors, high substrate, primary screen, biochemical, fluorescence intensity, high mannose 6-phosphate (AID 1220)
T3 sequence (P34949 whole entry): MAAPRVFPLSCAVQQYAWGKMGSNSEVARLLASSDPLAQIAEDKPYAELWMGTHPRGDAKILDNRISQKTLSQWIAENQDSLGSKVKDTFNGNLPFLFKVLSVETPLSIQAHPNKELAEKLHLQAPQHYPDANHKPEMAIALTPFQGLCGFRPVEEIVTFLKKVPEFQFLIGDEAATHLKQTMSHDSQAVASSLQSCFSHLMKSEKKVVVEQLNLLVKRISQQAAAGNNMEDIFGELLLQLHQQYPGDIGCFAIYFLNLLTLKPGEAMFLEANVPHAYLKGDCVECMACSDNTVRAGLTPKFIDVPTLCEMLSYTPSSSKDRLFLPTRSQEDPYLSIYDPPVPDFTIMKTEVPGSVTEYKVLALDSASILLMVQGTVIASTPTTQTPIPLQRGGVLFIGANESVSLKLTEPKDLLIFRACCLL

Coagulation factor XII = biological target: T4, Coagulation factor XII (Homo sapiens, UniProt P00748); format: functional;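 note: activated factor XIIa alpha cleaving a fluorogenic AMC peptide substrate; inhibitor potency from loss of enzyme activity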
T4 sequence (P00748 whole entry): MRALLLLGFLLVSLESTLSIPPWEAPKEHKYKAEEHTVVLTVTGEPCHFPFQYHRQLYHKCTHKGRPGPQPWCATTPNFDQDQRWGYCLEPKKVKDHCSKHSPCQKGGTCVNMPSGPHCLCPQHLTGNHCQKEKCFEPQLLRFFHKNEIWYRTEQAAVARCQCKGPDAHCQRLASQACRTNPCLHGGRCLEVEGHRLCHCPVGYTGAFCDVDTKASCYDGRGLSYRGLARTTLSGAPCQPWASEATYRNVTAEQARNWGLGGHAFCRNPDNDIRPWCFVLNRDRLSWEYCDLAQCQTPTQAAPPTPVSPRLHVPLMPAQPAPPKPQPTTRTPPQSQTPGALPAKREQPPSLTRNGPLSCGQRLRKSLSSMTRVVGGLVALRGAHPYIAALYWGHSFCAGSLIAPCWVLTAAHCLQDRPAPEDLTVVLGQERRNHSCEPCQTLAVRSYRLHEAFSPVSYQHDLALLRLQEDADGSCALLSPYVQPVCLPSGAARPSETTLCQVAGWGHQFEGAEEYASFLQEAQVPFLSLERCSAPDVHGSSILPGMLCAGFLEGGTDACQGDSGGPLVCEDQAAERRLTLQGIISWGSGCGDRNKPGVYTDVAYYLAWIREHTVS

Cytochrome P450 3A4 = Cytochrome P450 3A4 (Homo sapiens, UniProt P08684);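 note: CYP3A4 tested as one member of a cytochrome P450 panel screen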
Sequence of Cytochrome P450 3A4 (P08684 whole entry): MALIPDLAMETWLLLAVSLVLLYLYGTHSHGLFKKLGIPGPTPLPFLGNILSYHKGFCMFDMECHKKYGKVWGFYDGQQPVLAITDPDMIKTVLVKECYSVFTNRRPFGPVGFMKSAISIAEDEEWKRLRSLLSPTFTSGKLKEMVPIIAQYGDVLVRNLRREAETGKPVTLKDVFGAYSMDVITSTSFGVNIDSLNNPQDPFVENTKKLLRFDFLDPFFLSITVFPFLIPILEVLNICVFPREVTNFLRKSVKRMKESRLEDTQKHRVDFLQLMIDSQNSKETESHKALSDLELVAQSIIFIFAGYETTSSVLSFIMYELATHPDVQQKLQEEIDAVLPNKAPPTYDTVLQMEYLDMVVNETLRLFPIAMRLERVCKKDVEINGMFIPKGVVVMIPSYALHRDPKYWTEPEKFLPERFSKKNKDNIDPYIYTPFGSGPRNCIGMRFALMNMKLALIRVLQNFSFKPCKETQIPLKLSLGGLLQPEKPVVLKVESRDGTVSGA

[8] = THP-1 cell cytotoxicity, dose response, cytotoxicity control for non-replicating M. tuberculosis project (AID 489025); format: functional
[9] = Luminescence Cell-Based Dose Retest to Confirm Inhibitors of Cancer Stem Cells. [Related pubchem assays (depositor defined):AID2717, AID2721]; format: functional; conditions: Homo sapiens
[10] = HepG2 cell cytotoxicity, dose response, cytotoxicity control for non-replicating M. tuberculosis project (AID 489018); format: functional; conditions: Mycobacterium tuberculosis
[11] = Vero E6 cell cytotoxicity, dose response, cytotoxicity control for non-replicating M. tuberculosis project, secondary assay (AID 492998); format: functional, VeroE6; conditions: Vero C1008
[12] = biological target: T5, Microphthalmia-associated transcription factor (Homo sapiens, UniProt O75030); experiment: TRPM1 promoter luciferase signal decrease, dose response, MITF inhibitor project, cell-based, SK-MEL-5, cherry-picked, set 3 (AID 493073); format: functional
T5 sequence (O75030 whole entry): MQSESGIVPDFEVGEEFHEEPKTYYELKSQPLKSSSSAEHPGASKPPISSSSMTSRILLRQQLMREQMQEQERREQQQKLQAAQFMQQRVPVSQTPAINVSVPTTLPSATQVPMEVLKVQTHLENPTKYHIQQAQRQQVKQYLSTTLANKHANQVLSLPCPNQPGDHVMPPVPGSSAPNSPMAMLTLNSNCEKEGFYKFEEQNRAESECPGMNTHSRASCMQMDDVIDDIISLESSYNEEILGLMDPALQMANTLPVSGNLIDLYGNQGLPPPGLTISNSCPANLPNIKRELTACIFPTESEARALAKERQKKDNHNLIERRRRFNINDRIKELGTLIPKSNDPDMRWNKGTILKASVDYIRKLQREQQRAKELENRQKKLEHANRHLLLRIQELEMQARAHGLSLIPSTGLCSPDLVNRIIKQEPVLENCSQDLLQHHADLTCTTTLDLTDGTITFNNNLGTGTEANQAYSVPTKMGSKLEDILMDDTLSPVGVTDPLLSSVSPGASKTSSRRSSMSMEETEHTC

cells = format: functional
[13] = biological target: T6, Voltage-gated N-type calcium channel alpha-1B subunit/Amyloid beta A4 precursor protein-binding family A member 1 (Homo sapiens, UniProt Q00975+Q02410); format: protein assay
T6 sequence (Q00975 whole entry): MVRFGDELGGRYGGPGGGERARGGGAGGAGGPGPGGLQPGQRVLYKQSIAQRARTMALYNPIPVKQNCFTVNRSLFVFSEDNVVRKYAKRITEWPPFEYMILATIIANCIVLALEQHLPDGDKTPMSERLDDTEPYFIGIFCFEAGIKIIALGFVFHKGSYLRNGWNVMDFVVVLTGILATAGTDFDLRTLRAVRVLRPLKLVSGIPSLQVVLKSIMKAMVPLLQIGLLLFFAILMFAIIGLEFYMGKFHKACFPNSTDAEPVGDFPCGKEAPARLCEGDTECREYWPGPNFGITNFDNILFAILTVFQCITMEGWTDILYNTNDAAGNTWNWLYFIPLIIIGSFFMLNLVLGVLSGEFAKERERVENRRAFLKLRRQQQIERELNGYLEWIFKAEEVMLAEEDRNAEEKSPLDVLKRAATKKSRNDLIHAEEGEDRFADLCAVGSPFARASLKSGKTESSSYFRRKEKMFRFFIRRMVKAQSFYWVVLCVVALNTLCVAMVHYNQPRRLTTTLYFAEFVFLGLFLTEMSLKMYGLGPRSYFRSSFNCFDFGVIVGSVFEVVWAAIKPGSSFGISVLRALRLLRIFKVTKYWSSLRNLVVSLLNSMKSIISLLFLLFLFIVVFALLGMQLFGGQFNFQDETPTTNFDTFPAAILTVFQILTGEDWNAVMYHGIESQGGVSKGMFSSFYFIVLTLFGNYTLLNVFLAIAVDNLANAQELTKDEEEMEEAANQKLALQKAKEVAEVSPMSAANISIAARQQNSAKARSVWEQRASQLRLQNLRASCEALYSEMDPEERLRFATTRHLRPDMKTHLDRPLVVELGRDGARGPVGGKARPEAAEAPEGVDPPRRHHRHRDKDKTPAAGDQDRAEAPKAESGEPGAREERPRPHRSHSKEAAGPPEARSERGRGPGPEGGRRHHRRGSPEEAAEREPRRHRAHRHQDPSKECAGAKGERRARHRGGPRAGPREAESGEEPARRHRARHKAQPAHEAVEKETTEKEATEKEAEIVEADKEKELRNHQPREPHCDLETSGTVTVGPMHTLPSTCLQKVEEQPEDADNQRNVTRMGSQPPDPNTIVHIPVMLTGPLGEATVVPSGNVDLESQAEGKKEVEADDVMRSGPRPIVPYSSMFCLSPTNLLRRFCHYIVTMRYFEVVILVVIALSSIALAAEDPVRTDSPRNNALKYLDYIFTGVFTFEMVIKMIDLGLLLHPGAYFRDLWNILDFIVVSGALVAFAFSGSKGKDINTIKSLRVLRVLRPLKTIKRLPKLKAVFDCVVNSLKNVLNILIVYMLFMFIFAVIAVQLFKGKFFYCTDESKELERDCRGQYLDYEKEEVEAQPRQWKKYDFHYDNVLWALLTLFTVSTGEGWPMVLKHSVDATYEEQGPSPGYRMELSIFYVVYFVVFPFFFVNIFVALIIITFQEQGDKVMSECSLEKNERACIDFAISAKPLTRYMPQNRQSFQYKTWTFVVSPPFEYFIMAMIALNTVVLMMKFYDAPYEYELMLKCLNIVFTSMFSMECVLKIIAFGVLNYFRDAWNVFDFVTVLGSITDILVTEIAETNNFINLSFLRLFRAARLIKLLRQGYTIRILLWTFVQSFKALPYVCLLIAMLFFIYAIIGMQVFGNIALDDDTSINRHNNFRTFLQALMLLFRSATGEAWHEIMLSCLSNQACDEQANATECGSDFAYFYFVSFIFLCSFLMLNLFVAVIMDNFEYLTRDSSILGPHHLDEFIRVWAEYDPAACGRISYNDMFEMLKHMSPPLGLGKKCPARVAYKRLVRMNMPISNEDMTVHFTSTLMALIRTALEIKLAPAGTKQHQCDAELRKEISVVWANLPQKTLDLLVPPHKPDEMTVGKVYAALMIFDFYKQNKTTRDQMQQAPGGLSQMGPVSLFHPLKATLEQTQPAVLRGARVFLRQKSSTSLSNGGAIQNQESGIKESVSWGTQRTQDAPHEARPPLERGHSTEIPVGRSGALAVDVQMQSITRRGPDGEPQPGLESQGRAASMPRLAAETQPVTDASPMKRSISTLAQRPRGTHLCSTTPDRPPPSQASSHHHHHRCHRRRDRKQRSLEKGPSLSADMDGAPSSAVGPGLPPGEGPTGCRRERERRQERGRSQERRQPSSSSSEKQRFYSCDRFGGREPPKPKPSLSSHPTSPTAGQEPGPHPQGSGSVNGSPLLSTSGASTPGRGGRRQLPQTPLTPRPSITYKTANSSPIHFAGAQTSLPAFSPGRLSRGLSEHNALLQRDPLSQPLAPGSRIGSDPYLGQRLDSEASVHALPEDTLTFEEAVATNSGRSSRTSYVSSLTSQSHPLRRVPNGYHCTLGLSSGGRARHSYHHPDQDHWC
T6 sequence (Q02410 whole entry): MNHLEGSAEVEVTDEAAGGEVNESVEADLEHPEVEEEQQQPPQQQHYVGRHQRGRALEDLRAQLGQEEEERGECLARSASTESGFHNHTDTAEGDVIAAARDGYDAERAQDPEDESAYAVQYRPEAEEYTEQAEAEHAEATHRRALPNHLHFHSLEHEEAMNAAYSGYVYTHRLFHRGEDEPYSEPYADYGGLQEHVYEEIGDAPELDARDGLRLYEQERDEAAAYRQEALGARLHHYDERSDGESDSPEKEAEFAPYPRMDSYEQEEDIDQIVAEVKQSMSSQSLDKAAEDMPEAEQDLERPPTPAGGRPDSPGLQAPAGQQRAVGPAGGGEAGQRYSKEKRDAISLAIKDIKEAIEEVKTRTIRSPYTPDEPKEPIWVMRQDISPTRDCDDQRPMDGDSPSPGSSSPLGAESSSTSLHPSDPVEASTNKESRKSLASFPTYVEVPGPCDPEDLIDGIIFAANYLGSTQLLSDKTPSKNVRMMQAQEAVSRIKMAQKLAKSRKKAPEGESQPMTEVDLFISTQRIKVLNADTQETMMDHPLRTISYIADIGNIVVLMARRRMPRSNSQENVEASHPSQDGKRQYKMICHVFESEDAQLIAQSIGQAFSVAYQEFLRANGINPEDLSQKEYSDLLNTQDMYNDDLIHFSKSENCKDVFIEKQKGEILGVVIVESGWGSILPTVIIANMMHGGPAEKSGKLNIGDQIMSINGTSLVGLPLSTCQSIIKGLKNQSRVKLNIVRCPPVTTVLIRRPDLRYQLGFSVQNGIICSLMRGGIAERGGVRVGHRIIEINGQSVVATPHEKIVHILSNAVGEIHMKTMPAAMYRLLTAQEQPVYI

[14] = biological target: T6, Voltage-gated N-type calcium channel alpha-1B subunit/Amyloid beta A4 precursor protein-binding family A member 1; format: protein assay; remark: listed apart in the source
[15] = biological target: Induced myeloid leukemia cell differentiation protein Mcl-1 (Homo sapiens, UniProt Q07820); format: functional
Sequence of Induced myeloid leukemia cell differentiation protein Mcl-1 (Q07820 whole entry): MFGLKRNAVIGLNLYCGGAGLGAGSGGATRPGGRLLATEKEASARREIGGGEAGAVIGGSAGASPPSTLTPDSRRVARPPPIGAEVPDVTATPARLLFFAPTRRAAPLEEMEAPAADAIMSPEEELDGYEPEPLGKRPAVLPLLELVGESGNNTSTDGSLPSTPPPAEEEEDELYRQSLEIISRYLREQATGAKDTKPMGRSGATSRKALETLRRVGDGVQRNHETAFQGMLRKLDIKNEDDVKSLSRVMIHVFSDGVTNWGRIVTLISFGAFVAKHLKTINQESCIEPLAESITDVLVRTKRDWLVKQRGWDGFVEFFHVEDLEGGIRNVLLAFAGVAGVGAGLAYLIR

Hexokinase HKDC1 = biological target: T7, Hexokinase HKDC1 (Homo sapiens, UniProt Q2TB90); experiment: HKDC1 hexokinase inhibitors, dose response, biochemical, W721R variant (AID 504729); format: functional
T7 sequence (Q2TB90 whole entry): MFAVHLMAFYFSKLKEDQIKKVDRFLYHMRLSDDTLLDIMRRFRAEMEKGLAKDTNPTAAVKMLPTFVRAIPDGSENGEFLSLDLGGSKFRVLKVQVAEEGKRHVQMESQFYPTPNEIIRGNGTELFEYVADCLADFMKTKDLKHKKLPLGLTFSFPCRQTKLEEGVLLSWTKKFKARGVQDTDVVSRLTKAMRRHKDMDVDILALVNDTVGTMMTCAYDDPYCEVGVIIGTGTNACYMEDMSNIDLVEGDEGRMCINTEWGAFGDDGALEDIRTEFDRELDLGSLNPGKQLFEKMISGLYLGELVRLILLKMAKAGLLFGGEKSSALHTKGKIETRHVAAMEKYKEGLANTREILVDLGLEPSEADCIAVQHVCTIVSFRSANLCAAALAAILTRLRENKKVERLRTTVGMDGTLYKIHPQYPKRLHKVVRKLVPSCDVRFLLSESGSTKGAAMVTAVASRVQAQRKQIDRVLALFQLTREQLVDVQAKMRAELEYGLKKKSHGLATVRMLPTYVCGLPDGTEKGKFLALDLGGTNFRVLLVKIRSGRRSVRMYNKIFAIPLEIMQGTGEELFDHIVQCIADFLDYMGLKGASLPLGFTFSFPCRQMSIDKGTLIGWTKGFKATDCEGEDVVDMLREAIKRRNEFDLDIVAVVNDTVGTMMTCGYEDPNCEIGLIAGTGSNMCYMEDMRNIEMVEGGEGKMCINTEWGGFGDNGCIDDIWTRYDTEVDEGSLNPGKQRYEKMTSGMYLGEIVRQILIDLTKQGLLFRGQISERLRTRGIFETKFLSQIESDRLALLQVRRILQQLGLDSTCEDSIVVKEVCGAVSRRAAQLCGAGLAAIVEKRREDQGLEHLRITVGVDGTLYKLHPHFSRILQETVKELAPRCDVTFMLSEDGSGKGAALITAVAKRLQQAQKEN

Genome polyprotein = Genome polyprotein (dengue virus type 2, UniProt P29990); experiment: Dengue-2 NS5 methyltransferase inhibitors, primary screen, biochemical, confirmation dose response (AID 588689); format: functional
[16] = biological target: T8, Carboxy-terminal domain RNA polymerase II polypeptide A small phosphatase 1 (Homo sapiens, UniProt Q9GZU7); experiment: inhibitors of CTDSP1, concentration-response testing, biochemical assay, absorbance-based, actives from ultra-high-throughput screening (AID 540297); format: functional
T8 sequence (Q9GZU7 whole entry): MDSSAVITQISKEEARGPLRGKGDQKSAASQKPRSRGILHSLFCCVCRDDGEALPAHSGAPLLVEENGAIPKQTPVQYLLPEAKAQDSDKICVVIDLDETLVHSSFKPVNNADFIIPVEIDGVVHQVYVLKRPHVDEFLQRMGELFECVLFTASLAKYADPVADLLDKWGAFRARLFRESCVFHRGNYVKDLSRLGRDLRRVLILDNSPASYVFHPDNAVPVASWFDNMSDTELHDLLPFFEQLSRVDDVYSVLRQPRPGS

Cytochrome P450 2C19 = Cytochrome P450 2C19 (Homo sapiens, UniProt P33261); experiment: Cytochrome panel assay with activity outcomes. Panel member name: p450-cyp2c19 Compounds with AC50 equal or less than 10 uM are considered active; format: functional; conditions: read-out: AC50
Sequence of Cytochrome P450 2C19 (P33261 whole entry): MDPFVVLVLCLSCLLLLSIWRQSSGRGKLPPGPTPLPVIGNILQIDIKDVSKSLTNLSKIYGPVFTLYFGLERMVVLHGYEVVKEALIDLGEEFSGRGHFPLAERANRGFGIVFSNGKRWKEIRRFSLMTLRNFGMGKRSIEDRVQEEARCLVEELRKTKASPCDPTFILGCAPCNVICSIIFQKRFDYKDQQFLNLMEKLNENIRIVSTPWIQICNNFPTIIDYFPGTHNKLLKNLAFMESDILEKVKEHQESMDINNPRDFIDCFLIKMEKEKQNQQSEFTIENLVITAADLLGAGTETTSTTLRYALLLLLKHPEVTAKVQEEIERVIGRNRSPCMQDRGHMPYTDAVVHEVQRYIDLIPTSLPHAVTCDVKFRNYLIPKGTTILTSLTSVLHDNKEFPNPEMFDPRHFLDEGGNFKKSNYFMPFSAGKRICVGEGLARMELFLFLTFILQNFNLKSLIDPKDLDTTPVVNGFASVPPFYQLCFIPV

Cytochrome P450 2C9 [17] = biological target: T1, Cytochrome P450 2C9; remark: listed apart in the source

In the case of `O=C(NCC1CCCO1)c1cc(-c2ccc(Cl)cc2Cl)on1` (centres undefined), the AC50 (A-375 [1]) is reported as > 11 µM (active), the AC50 (A-375 [2]) is reported as > 11 µM (active) and the AC50 (Cytochrome P450 2C9 [3]) is reported as “inconclusive”.
With `C/C(=N\Nc1ccccn1)c1ccc(C(C)C)cc1` the AC50 (HeLa) was 46.7 µM (active).
In the case of `CC(C)C(=O)Nc1ccc(Nc2ccccc2)cc1`, the IC50 [4] is reported as 51.1 µM (active) and the AC50 (Escherichia coli) is reported as 29.9 µM (active).
In the case of `COc1cccc(-c2cc(O)c3cc(NC(C)=O)ccc3n2)c1`, the AC50 (Escherichia coli) is reported as 28.2 µM (active).
With `CCO/C(O)=C(/C)C1=NC(C)(C)Cc2ccccc21` the EC50 [5] was 10.7 µM (active), the EC50 [6] was > 60 µM (not active) and the IC50 [7] was 37.9 µM (active). For the same compound, the IC50 (Coagulation factor XII) was > 50 µM (inactive).
For `Cc1cnc(CNc2cc(-c3ccccc3Cl)ncn2)cn1`, the AC50 (Cytochrome P450 3A4) was “inconclusive”.
For `CC(=O)/N=C(\N)Nc1nc2cc(C)ccc2o1`, the AC50 (A-375 [1]) was > 35 µM (active) and the AC50 (A-375 [2]) was > 35 µM (active).
In the case of `Cc1ccc2c(Cl)c(C(=O)Nc3cccnc3)sc2c1`, the AC50 (HeLa) is reported as 46.7 µM (active).
For `CC1CCCC(NCC(O)COC(c2ccc(F)cc2)c2ccc(F)cc2)C1C` (centres undefined), the CC50 [8] was 15.8 µM (active), the AC50 [9] was 6.35 µM (active) and the CC50 [10] was 16.1 µM (active). For the same compound, the CC50 [11] was > 20 µM (active), the AC50 [12] was 10.8 µM (active) and the IC50 (cells) was 11.4 µM (active). The AC50 (A-375 [2]) was 20.2 µM (active).
With `CC(C)c1ccc(OCC(=O)N2CCN(C)CC2)c(Br)c1` the AC50 (Escherichia coli) was 57.9 µM (active).
In the case of `CCC1=NN2C(=N)/C(=C\c3ccc(OCc4cc(=O)n5nc(CC)sc5n4)c(OC)c3)C(=O)N=C2S1`, the IC50 [13] is reported as > 56.8 µM (not active), the IC50 [14] is reported as > 50 µM (inactive) and the IC50 [15] is reported as 2.95 µM (active). For the same compound, the IC50 (Hexokinase HKDC1) was 41.1 µM (inactive), the IC50 (Genome polyprotein) was 61.9 µM (active) and the IC50 [16] was 5.99 µM (active).
For `O=C(O)c1ccc(NCc2nc3ccccc3n2Cc2ccccc2)cc1`, the IC50 (Coagulation factor XII) was > 50 µM (inactive).
For `CCCC(=O)Nc1nc2nc(-c3ccccc3)cc(-c3ccccc3)n2n1`, the AC50 (Cytochrome P450 2C19) was 11.2 µM (inconclusive), the AC50 (Cytochrome P450 2C9 [17]) was 0.0112 µM (inconclusive) and the AC50 (Cytochrome P450 3A4) was “inconclusive”.
With `CCN(c1ccccc1)S(=O)(=O)c1ccc(C(=O)Nc2nnc(COC)o2)cc1` the IC50 (Coagulation factor XII) was > 50 µM (inactive).
